Patent US8088602B1, “Manipulation of RNA stability and protein synthesis using thio-phosphate” (priority 2001, dated 2012)

Experiments:
beta-galactosidase = experiment: Recombinant beta-galactosidase colormetric assay (X-gal) in bacterial cells; type: cell-based; conditions: for effect on beta-galactosidase enzyme activity: 2% lactose minimal media
Description: A recombinant vector containing the beta-galactosidase gene (Promega's TA vector expressed from an SP6 promoter) can also be examined. Enzyme activity is detected via a colormetric assay. Cells are grown in minimal media made with 2% lactose rather than glucose for optimal induction of beta-galactosidase. After several (˜4-5) hrs bacterial cells are removed to assay for enzyme activity. To 0.5 ml of cells add 0.5 ml of 200 mM Tris-HCL, pH 7.5 and 5 ul of 1% SDS (sodium dodecyl sulfate). Then add 10 ul of IPTG (100 mM) and 20 ul of X-gal (50 mg/ml), mix and incubate at 37° C. […] In the presence of glucose which represses the enzyme, the activity is much lower but can be enhanced 10 fold by using a 50% ratio of thio-phosphate to phosphate.

Carassius auratus = experiment: Tolerance of fish kept in conditioned media with thio-phosphate; type: in vivo; conditions: up to 250 mg/L of thio-phosphate in conditioned media, two days
Description: (§1) Thio-phosphate can also be utilized by whole animals and/or complex tissues. Carassius auratus incorporates thio-phosphate into the DNA of intestinal cells; these cells are known to turnover in adults. Fish can be maintained in distilled water with NovAqua and AmQuel conditioners (U.S. Pat. No. 4,666,610). Goldfish flakes are also added for food. Normal phosphate levels in the aquarium are less than 1 mg/L (Hanna Phosphate Test Kit; Hanna Instruments). Fish are transferred to 100 ml of conditioned media with up to 250 mg/L of thio-phosphate added. […] Fresh media is prepared daily. Fish are sacrificed and DNA prepared from intestinal cells using DNAzol™ (Molecular Research Center Ohio). The DNA samples are then tested for resistance to DNase digestion. Samples are incubated in a 50 ul rxn with ˜lug of DNA and 0.5 units of DNase for 0, 5, 10, 15 min. at room temp. DNA from 250 mg/L thio-phosphate media is much more resistant than wildtype DNA or DNA from 25 mg/L thio-phosphate media. Normal DNA and 25 mg/L thio-phosphate treated DNA is digested after 5 min. while 250 mg/L thio-phosphate treated DNA persists beyond 15 min. of digestion (FIG. 3).

lipase = experiment: Secreted lipase of yeast, qualitative assays; type: cell-based
Description: (§2) An additional assay was developed to examine the effects of thio-phosphate media on the synthesis of secreted proteins. Yeast excrete many extracellular hydrolases and the mRNAs for […] adenine, histidine, leucine, lysine, and uracil (Sp, BIO101). Various S. cerevisiase strains are able to grow in minimal media containing thio-phosphate: multiploid fleischmann's yeast strain, haploid strain ATTC# 32119, and diploid strain BJ3505 (Sigma). The haploid strain Pichia canadensis ATTC# 14355 grew better with a yeast nitrogen based media (YNB, BIO 101) as opposed to EMM. Note that the optimal level of total phosphate for yeast is ˜1 g/L which is much less than that for bacteria. Again if necessary to improve growth use nutrient broths depleted of phosphate (see below).
The mRNA is in the size range expected for a mature mRNA in which the intron sequences have been removed (FIG. 1). […] The actin probe is prepared by amplification of yeast genomic DNA (act), YFL039C, Saccharomyces Genome Database http://genome-www2.standford.edu) with the following PCR primers: • SEQ ID NO. 1: 5′ GAGGTTGCTGCTTTGGTTATTG 3′ 22 bp • SEQ ID NO. […] The probe is hybridized according to S&S protocols and detected by chemilumescence using polaroid film. […] Extracellular nucleases are detected by monitoring the degradation of genomic DNA by gel electrophoresis.

Extracellular nucleases = experiment: Extracellular nuclease activity of yeast (degradation of genomic DNA by gel electrophoresis); type: cell-based
Description: as §2
The mRNA is in the size range expected for a mature mRNA in which the intron sequences have been removed (FIG. 1). […] The actin probe is prepared by amplification of yeast genomic DNA (act), YFL039C, Saccharomyces Genome Database http://genome-www2.standford.edu) with the following PCR primers: • SEQ ID NO. 1: 5′ GAGGTTGCTGCTTTGGTTATTG 3′ 22 bp • SEQ ID NO. 2: 5′ TTGTGGTGAACGATAGATGGAC 3′ 22 bp PCR cycling parameters using a BIO-RAD thermal cycler and Taq polymerase are as follows: initial denaturation at 94° C. for 4 min. followed by 33 cycles of denaturation at 94° C. for 30 sec, annealing at 45° C. for 30 sec, elongation at 72° C. for 3 min. followed by a final elongation at 72° C. for 7 min. […] Total RNA (˜0.5 ug) is separated on a 2% high resolving agarose gel and transferred to a neutral nylon membrane. The probe is hybridized according to S&S protocols and detected by chemilumescence using polaroid film. […] Extracellular nucleases are detected by monitoring the degradation of genomic DNA by gel electrophoresis.

bacteria = experiment: Soluble protein levels, biuret reagent, bacteria; type: cell-based; conditions: low ratios of thio-phosphate to phosphate (10-30%)
Description: (§3) At higher ratios a slight decline in growth appears to account for a reduction in total protein synthesis detected. To measure protein synthesis 4 ml of cells are pelleted washed in PBS and resuspended in lysozyme solution for bacteria. Cells are then pelleted again and washed in PBS to remove lysozyme. Cells are then lysed in 400 ul of 1% SDS and 0.2 N NaOH. The extract is then diluted in water to 2 ml and assayed using the biuret reagent (Gornall et al (1949) J. Biol. Chem. 177:751). Yeast are assayed without lysozyme.

yeast actin mRNA = experiment: Northern analysis of actin mRNA in yeast grown in thio-phosphate media; type: cell-based, S. cerevisiae; conditions: 100% thio-phosphate substituted media; ~0.5 ug total RNA
Description: To maximize mRNA levels cells are grown in minimal media substituted with 100% thio-phosphate. Bacteria and yeast grow quite well in such media. For E. coli minimal media is prepared as follows: (Na3SPO3.XH2O) 10-15 g/L and KCL (1.5 g/L) (NH4)2SO4, 1 g/L; sodium citrate 2H2O, 0.5 g/L; Adjust pH to 7.4 and sterile filter. Then add the following: MgSO4.7H2O, 0.2 g/L (sterilized separately as a conc. solution); (thiamine HCL, 5 ug/L; glucose, 4 g/L sterilized separately by filtration). Glucose can also be sterilized by autoclaving separately. FeCl2 (500 ug/L) can also be added as needed. Thio-phosphate contains variable amounts of water (10-15 per molecule) not included in molecular weight calculations. It is almost 50% water by weight. Note pH control is important in maximizing thio-phosphate stability. […] When adapting to other bacteria determine the sensitivity of the organism to thio-phosphate levels. Optimize for KCL as this often is provided as a salt of normal phosphate. […]
The mRNA is in the size range expected for a mature mRNA in which the intron sequences have been removed (FIG. 1). […] The probe is hybridized according to S&S protocols and detected by chemilumescence using polaroid film. […] Extracellular nucleases are detected by monitoring the degradation of genomic DNA by gel electrophoresis.

[1] = test system: pFLAG-ATS-BAP (bacterial alkaline phosphatase) expression in JM109; experiment: Bacterial expression of pFLAG-ATS-BAP, colormetric staining of whole cells (NBT/BCIP); type: cell-based, bacterial cells (JM109)
Description: Bacterial expression can be examined using the recombinant vector pFLAG-ATS-BAP (Sigma Chemical; U.S. Pat. Nos. 4,703,004, 4,782,137 EP Patent 150126, and JP Patent 1983150) marked with bacterial alkaline phosphatase and under the control of a tac/lac hybrid promoter induced by IPTG. This control plasmid is expressed in the periplasmic fraction by virtue of the N-terminal OmpA signal at high levels. Enzyme activity is easily visualized using colormetric staining of whole cells. 0.5 ml of cells are pelleted and resuspended in pH 9.5 buffer (0.1 M Tris-HCL, 0.1 M NaCL, 50 mM MgCl2) along with 10 ul of NBT (nitroblue tetrazolium, 50 mg/ml) and 5 ul of BCIP (5-bromo-4-chloro-3-indolylphosphate, 50 mg/ml). After sufficient time (there may be a slight delay in the activity of induced cells) the samples are compared and then centrifuged to compare pellets. Various ratios of modified phosphate to phosphate are examined: 0%, 10%, 15%, 20%, 25%, 30%, 40%, 50%, 60, 70%, 80%, 90% and 100%. […] To determine the optimal ratio a lower level of lactose is used in the media to prevent the formation of inclusion bodies during the analysis (M9 minimal media made with 0.1% rather than 0.5% lactose, total phosphate levels of 10 g/L). […]

yeast = experiment: Soluble protein levels, biuret reagent, yeast; type: cell-based; conditions: low ratios of thio-phosphate to phosphate (10-30%)
Description: as §3

DNA of intestinal cells = experiment: DNase resistance of intestinal DNA from fish kept in thio-phosphate media; type: in vivo, Carassius auratus; conditions: 0.5 units DNase, room temp.
Description: as §1

[2] = test system: YEpFLAG-1-BAP (bacterial alkaline phosphatase) expression in yeast cells (BJ3505 strain); experiment: Recombinant FLAG-tagged secreted bacterial alkaline phosphatase synthesis in yeast (immuno test strips, dilution assays); type: cell-based, S. cerevisiae
Description: (§4) The stabilization of RNA by growth in thio-phosphate media can be used to enhance the protein synthesis of many proteins. The optimal level of thio-phosphate to phosphate must be determined as well absolute levels of total phosphate that are tolerable. Growth in all cases is enhanced by using enriched media prepared by depleting inherent phosphate. To deplete phosphate by precipitation, MgSO4 and ammonium hydroxide are added to the media of choice. YPD (1% Bacto-yeast extract, 2% Bacto-peptone, 2% Dextrose) phosphate depleted media is prepared by adding 10 ml of 1 M MgSO4 and 10 ml of concentrated NH4OH per liter and allowing the ppt. to form by leaving the solution at room temp. for 30 min. The media is then filtered and the pH readjusted to pH 6.5. Using this procedure, the detectable amount of ortho-phosphate remaining is less than ˜200 mg/liter. […] It is best to innoculate at high densities using, for example a 1:20 dilution. Insufficient innoculum (low density) will result in poor growth.
To test for optimal protein synthesis conditions the following system can be used: a recombinant YEp plasmid containing a secreted bacterial alkaline phosphatase gene (YEpFLAG-1-BAP, Sigma; U.S. Pat. Nos. 4,703,004, 4,782,137 EP Patent 150126, and JP Patent 1983150) marked with the FLAG™ peptide DYKDDDDK. […]

Pichia canadensis = experiment: Growth in phosphate depleted YPD media with thio-phosphate/phosphate ratios; type: cell-based; conditions: phosphate levels ~1 g/L, full range of ratios (100% to 0%)
Description: as §4

S. cerevisiae = experiment: as above; type: cell-based; conditions: phosphate levels ~1 g/L, full range of ratios (100% to 0%)
Description: as §4

Structure (SMILES): [Na+].[Na+].[Na+].[O-]P([O-])([O-])=S [thio-phosphate, Na3SPO3.XH2O]
- effect on beta-galactosidase enzyme activity (beta-galactosidase; higher ratios (50-70%)): recovers from inhibition
- enhancement of beta-galactosidase activity (beta-galactosidase; in the presence of glucose, 50% ratio of thio-phosphate to phosphate): 10 fold
- effect on beta-galactosidase enzyme activity (beta-galactosidase; low ratios of thio-phosphate to phosphate (5-30%)): inhibited
- adverse reactions in fish (Carassius auratus): No adverse reactions
- increase of lipase (lipase): less than two fold
- increase of extracellular nuclease activity (Extracellular nucleases; 10% ratio of thio-phosphate to phosphate): two to three fold increase
- effect on extracellular nuclease activity (Extracellular nucleases; ratios above 70%): slightly inhibitory
- effect on extracellular nuclease activity (Extracellular nucleases; ratios beyond 30%): not stimulatory
- soluble protein levels (bacteria): not enhanced
- stabilization of actin mRNA (yeast actin mRNA): significant stabilization
- BAP activity elevated over controls ([1]; 50% ratio, low lactose levels): several fold
- optimal ratio of modified phosphate to phosphate for BAP enzyme activity ([1]; low lactose (0.1%) M9 minimal media, total phosphate 10 g/L): 50%
- soluble protein levels (yeast): not enhanced
- time after which DNA is digested by DNase (DNA of intestinal cells; 25 mg/L thio-phosphate media): ≤ 5 min
- time DNA persists under DNase digestion (DNA of intestinal cells; 250 mg/L thio-phosphate media): > 15 min
- ratio of thio-phosphate to normal phosphate at which maximal synthesis occurs ([2]; weight equivalent ratio, grown overnight, following cessation of growth, ratios 100-0 tested): ~10%
- increase of FLAG-BAP protein compared to normal media with an equivalent amount of phosphate ([2]; ~10% ratio, dilution assays): about ten fold
- growth (Pichia canadensis): adequate growth
- growth (S. cerevisiae): adequate growth
